How the values were obtained:
[1] = Crystal; for vapor or sublimation pressure: Transpiration method; for Normal melting temperature: DTA
[2] = Molar enthalpy of transition or fusion; conditions: Crystal; DSC

N#Cc1ccc(NS(=O)(=O)c2ccc(N)cc2)cc1 [4-amino-N-(4-cyanophenyl)benzenesulfonamide]
[1]
Conditions	vapor or sublimation pressure [kPa]
420.15 K	6.74e-06
420.95 K	7.23e-06
421.35 K	7.91e-06
424.75 K	1.13e-05
426.55 K	1.36e-05
428.35 K	1.66e-05
429.65 K	1.94e-05
431.35 K	2.11e-05
431.75 K	2.28e-05
432.35 K	2.33e-05
433.05 K	2.63e-05
434.75 K	3.17e-05
435.75 K	3.58e-05
437.15 K	4.24e-05
437.55 K	4.37e-05

Conditions	Molar enthalpy of transition or fusion [kcal/mol]	Normal melting temperature [°C]
[1]	–	178.4
[2]	7.39	–

Nc1ccc(S(=O)(=O)Nc2ccc([N+](=O)[O-])cc2)cc1 [4-amino-N-(4-nitrophenyl)benzenesulfonamide]
[1]
Conditions	vapor or sublimation pressure [kPa]
405.55 K	1.5e-06
409.45 K	2.18e-06
412.85 K	2.3e-06
415.15 K	3.41e-06
417.25 K	4.01e-06
418.75 K	4.34e-06
420.05 K	5.46e-06
421.55 K	5.63e-06
423.25 K	6.16e-06
424.65 K	7.3e-06
426.25 K	8.92e-06
428.75 K	1.05e-05
431.35 K	1.28e-05
432.05 K	1.41e-05
435.15 K	1.81e-05
438.25 K	2.28e-05

Conditions	Molar enthalpy of transition or fusion [kcal/mol]	Normal melting temperature [°C]
[1]	–	165.8
[2]	6.67	–

O=[N+]([O-])c1ccc(NS(=O)(=O)c2ccccc2)cc1 [N-(4-nitrophenyl)benzenesulfonamide]
[1]
Conditions	vapor or sublimation pressure [kPa]
380.15 K	9.47e-06
384.15 K	1.55e-05
385.15 K	1.72e-05
387.15 K	2.09e-05
390.15 K	2.84e-05
391.15 K	3.17e-05
392.15 K	3.47e-05
393.15 K	3.88e-05
394.15 K	4.04e-05
395.15 K	4.64e-05
396.65 K	5.13e-05
401.15 K	8.37e-05
401.65 K	8.63e-05

Conditions	Molar enthalpy of transition or fusion [kcal/mol]	Normal melting temperature [°C]
[1]	–	138.2
[2]	6.86	–
